Assay results: ChEMBL document CHEMBL4184213, “Essential structure of orexin 1 receptor antagonist YNT-707, Part II: Drastic effect of the 14-hydroxy group on the orexin 1 receptor antagonistic activity” (Bioorg Med Chem Lett, 2018)

Legend:
[1] = molecular target: T1, Orexin/Hypocretin receptor type 1 (Homo sapiens, UniProt O43613); experiment: Antagonist activity at human OX1R expressed in CHOK1 cells assessed as inhibition of orexin A-induced intracellular Ca2+ release preincubated for 15 mins followed by orexin A addition by Fura 2-AM dye based fluorescence assay; type: functional, cell-based
T1 sequence (O43613 whole entry): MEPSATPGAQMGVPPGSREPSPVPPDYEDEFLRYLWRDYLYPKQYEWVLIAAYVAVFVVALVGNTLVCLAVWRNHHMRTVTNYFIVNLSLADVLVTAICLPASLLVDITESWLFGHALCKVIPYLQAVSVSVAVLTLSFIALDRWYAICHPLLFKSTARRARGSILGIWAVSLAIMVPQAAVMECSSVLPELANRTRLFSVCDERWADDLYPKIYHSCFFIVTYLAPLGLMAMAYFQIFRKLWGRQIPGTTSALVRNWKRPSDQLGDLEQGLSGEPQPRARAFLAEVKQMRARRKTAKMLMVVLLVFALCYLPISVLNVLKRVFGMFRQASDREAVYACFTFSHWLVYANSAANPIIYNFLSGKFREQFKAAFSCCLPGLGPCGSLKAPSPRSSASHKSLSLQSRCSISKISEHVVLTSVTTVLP

[2] = molecular target: T2, Orexin receptor type 2 (Homo sapiens, UniProt O43614); experiment: Antagonist activity at human OX2R expressed in CHOK1 cells assessed as inhibition of orexin A-induced intracellular Ca2+ release preincubated for 15 mins followed by orexin A addition by Fura 2-AM dye based fluorescence assay; type: functional, cell-based
T2 sequence (O43614 whole entry): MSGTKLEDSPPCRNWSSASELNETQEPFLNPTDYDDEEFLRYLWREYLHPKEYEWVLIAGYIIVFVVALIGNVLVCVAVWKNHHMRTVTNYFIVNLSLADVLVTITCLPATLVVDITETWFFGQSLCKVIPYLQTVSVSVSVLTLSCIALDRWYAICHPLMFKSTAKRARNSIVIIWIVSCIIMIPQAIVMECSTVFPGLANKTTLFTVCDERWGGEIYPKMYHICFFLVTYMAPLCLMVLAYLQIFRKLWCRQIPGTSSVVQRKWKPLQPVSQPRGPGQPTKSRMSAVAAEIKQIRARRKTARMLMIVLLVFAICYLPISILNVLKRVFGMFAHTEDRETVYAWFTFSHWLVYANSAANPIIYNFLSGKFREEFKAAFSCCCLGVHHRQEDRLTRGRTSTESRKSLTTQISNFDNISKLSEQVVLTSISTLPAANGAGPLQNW

Row | Structure (SMILES) | Ki [1] [nM] | Ki [2] [nM]
1 | COc1ccc2c3c1O[C@H]1[C@H](N(C)C(=O)/C=C/c4ccoc4)CC=C4[C@@H](C2)N(S(=O)(=O)c2ccccc2)CC[C@]431 | 2.06 | > 10000
2 | COc1ccc2c3c1O[C@H]1[C@@H](N(C)C(=O)/C=C/c4ccoc4)CC[C@H]4[C@@H](C2)N(S(=O)(=O)c2ccccc2)CC[C@@]341 | 187 | > 10000
3 | COc1ccc2c3c1O[C@H]1[C@@H](N(C)C(=O)/C=C/c4ccoc4)CC=C4[C@@H](C2)N(S(=O)(=O)c2ccccc2)CC[C@]431 | 17.8 | 123
4 | COc1ccc2c3c1O[C@H]1[C@H](N(C)C(=O)/C=C/c4ccoc4)CC[C@H]4[C@@H](C2)N(S(=O)(=O)c2ccccc2)CC[C@@]341 | 1.97 | > 10000
5 | COc1ccc2c3c1O[C@H]1[C@@H](N(C)C(=O)/C=C/c4ccoc4)CC[C@@]4(O)[C@@H](C2)N(S(=O)(=O)c2ccccc2)CC[C@]314 | – | > 10000
6 | COc1ccc2c3c1O[C@H]1[C@H](N(C)C(=O)/C=C/c4ccoc4)CC[C@@]4(O)[C@@H](C2)N(S(=O)(=O)c2ccccc2)CC[C@]314 | – | > 10000
